Values after ≈ are worked out from the molar mass of the structure shown.
How the values were obtained:
[1] = system: A2780 ovarian carcinoma cells; assay: In Vitro Cell Proliferation Assay (A2780); assay type: cell-based; settings: Homo sapiens, 72 hours exposure, CellTiterGlo
Procedure: (§1) In Vitro Cell Proliferation Assay
(§2) To evaluate the antiproliferative activity of a compound of formula (I) the following human cell lines were used: A2780 ovarian and MCF-7 breast carcinoma; TT and MZ-CRC-1 medullary thyroid carcinoma, harboring a mutated RET-C634W and RET-M918T receptor respectively, LC-2/ad Non Small Cell Lung Carcinoma, expressing the CCDC6-RET fusion gene product. Exponentially growing cells were seeded and incubated at 37° C. in a humidified 5% C02 atmosphere using appropriate medium supplemented with 10% Fetal Bovine Serum. 24 hours following cell plating, scalar doses of the compounds dissolved in 0.1% DMSO were added to the medium and cells were exposed to drugs for either 72 hours (MCF-7 and A2780) or 144 hours (TT, MZ-CRC-1 and LC-2/ad), according to their different proliferation rate. At the end of treatment, cell proliferation was determined by an intracellular ATP monitoring system (CellTiterGlo—Promega), following manufacturer's instructions, and using an Envision instrument (PerkinElmer) as reader. Data obtained from compound versus vehicle treated cells were compared using Assay Explorer (Symyx Technologies Inc) software. IC50 values were calculated using sigmoidal interpolation curve fitting.

[2] = system: MZ-CRC-1 medullary thyroid carcinoma cells, harboring a mutated RET-M918T receptor; assay: In Vitro Cell Proliferation Assay (MZ-CRC-1); assay type: cell-based; settings: Homo sapiens, 144 hours exposure, CellTiterGlo
Procedure: as §1, §2

[3] = system: MCF-7 breast carcinoma cells; assay: In Vitro Cell Proliferation Assay (MCF-7); assay type: cell-based; settings: Homo sapiens, MCF7; 72 hours exposure, CellTiterGlo
Procedure: as §1, §2

[4] = system: TT medullary thyroid carcinoma cells, harboring a mutated RET-C634W receptor; assay: In Vitro Cell Proliferation Assay (TT); assay type: cell-based; settings: Homo sapiens; 144 hours exposure, CellTiterGlo
Procedure: as §1, §2

[5] = system: LC-2/ad Non Small Cell Lung Carcinoma cells, expressing the CCDC6-RET fusion gene product; assay: In Vitro Cell Proliferation Assay (LC-2/ad); assay type: cell-based; settings: Homo sapiens, 144 hours exposure, CellTiterGlo
Procedure: as §1, §2

[6] = High-Throughput Solubility Assay; assay type: physicochemical; settings: kinetic from dmso stock; pH 7, aqueous potassium phosphate buffer, nominal 200 μM, 24 h at room temperature
Procedure: High-Throughput Solubility Assay
A nominal 200 μM suspensions/solutions of a compound of formula (I) in aqueous potassium phosphate buffer at pH=7 and aqueous citric acid buffer at pH=3 were prepared on a “Multiscreen-HTS”, 0.2 μm filter plate (Millipore, Billerica, Mass.). These solutions were stirred for 10 min and stored for 24 h at room temperature to pre-saturate the membrane filter and to reach a “pseudo-thermodynamic solubility”. Then the plate was put on a 500 μL 96 multiwell plate containing 200 μL of acetonitrile in each well and centrifuged at 2000 rpm for 5 minutes. The so obtained solutions were then analyzed simultaneously by HPLC-UV with standard solutions for quantification.

Structure (SMILES): CCN1CCN(Cc2ccc(NC(=O)Cc3cccc(C#Cc4cnc(NC)nc4-c4cc5c(n4C)CCNC5=O)c3)cc2C(F)(F)F)CC1 [Cmpd 78, N-[4-(4-Ethyl-piperazin-1-ylmethyl)-3-trifluoromethyl-phenyl]-2-{3-[2-methylamino-4-(1-methyl-4-oxo-4,5,6,7-tetrahydro-1H-pyrrolo[3,2-c]pyridin-2-yl)-pyrimidin-5-ylethynyl]-phenyl}-acetamide]
- IC50 [1]: 2220 nM
- IC50 [2]: 0.026 µM
- IC50 [3]: 2310 nM
- IC50 [4]: 0.007 µM
- IC50 [5]: 0.014 µM
- solubility at 24 h [6]: 1.4 µM (≈ 0.959 µg/mL)

Structure (SMILES): CCN1CCN(Cc2ccc(NC(=O)Cc3cccc(C#Cc4cnc(N)nc4-c4cc5c(n4C)CCNC5=O)c3)cc2C(F)(F)F)CC1 [Cmpd 77, 2-{3-[2-Amino-4-(1-methyl-4-oxo-4,5,6,7-tetrahydro-1H-pyrrolo[3,2-c]pyridin-2-yl)-pyrimidin-5-ylethynyl]-phenyl}-N-[4-(4-ethyl-piperazin-1-ylmethyl)-3-trifluoromethyl-phenyl]-acetamide]
- IC50 [1]: 2820 nM
- IC50 [2]: 0.023 µM
- IC50 [3]: 6650 nM
- IC50 [4]: 0.002 µM
- IC50 [5]: 0.003 µM
- solubility at 24 h [6]: 23 µM (≈ 15.4 µg/mL)

Structure (SMILES): CCN1CCN(Cc2ccc(NC(=O)Nc3cccc(C#Cc4cnc(N)nc4-c4cc5c(n4C)CCNC5=O)c3)cc2C(F)(F)F)CC1 [Cmpd 8, 1-{3-[2-Amino-4-(1-methyl-4-oxo-4,5,6,7-tetrahydro-1H-pyrrolo[3,2-c]pyridin-2-yl)-pyrimidin-5-ylethynyl]-phenyl}-3-[4-(4-ethyl-piperazin-1-ylmethyl)-3-trifluoromethyl-phenyl]-urea]
- IC50 [1]: 1760 nM
- IC50 [2]: 0.074 µM
- IC50 [3]: 4780 nM
- IC50 [4]: 0.002 µM
- IC50 [5]: 0.038 µM
- solubility at 24 h [6]: 6.5 µM (≈ 4.37 µg/mL)

Structure (SMILES): CCN1CCN(Cc2ccc(NC(=O)c3cccc(C#Cc4cnc(N)nc4-c4cc5c(n4C)CCNC5=O)c3)cc2C(F)(F)F)CC1 [Cmpd 48, 3-[2-Amino-4-(1-methyl-4-oxo-4,5,6,7-tetrahydro-1H-pyrrolo[3,2-c]pyridin-2-yl)-pyrimidin-5-ylethynyl]-N-[4-(4-ethyl-piperazin-1-ylmethyl)-3-trifluoromethyl-phenyl]-benzamide]
- IC50 [1]: 85 nM
- IC50 [2]: 0.004 µM
- IC50 [3]: 1840 nM
- IC50 [4]: 0.0005 µM
- IC50 [5]: 0.004 µM
- solubility at 24 h [6]: 26.9 µM (≈ 17.7 µg/mL)

Structure (SMILES): CNc1ncc(C#Cc2cccc(CC(=O)Nc3ccc(CN4CCN(C(C)C)CC4)c(C(F)(F)F)c3)c2)c(-c2cc3c(n2C)CCNC3=O)n1 [Cmpd 176, N-[4-(4-Isopropyl-piperazin-1-ylmethyl)-3-trifluoromethyl-phenyl]-2-{3-[2-methylamino-4-(1-methyl-4-oxo-4,5,6,7-tetrahydro-1H-pyrrolo[3,2-c]pyridin-2-yl)-pyrimidin-5-ylethynyl]-phenyl}-acetamide]
- IC50 [1]: 3830 nM
- IC50 [2]: 0.023 µM
- IC50 [4]: 0.014 µM
- IC50 [5]: 0.02 µM
- solubility at 24 h [6]: 7.6 µM (≈ 5.31 µg/mL)

Structure (SMILES): CNc1ncc(C#Cc2cc(CC(=O)Nc3ccc(CN4CCN(C)CC4)c(C(F)(F)F)c3)ccc2F)c(-c2cc3c(n2C)CCNC3=O)n1 [Cmpd 190, 2-{4-Fluoro-3-[2-methylamino-4-(1-methyl-4-oxo-4,5,6,7-tetrahydro-1H-pyrrolo[3,2-c]pyridin-2-yl)-pyrimidin-5-ylethynyl]-phenyl}-N-[4-(4-methyl-piperazin-1-ylmethyl)-3-trifluoromethyl-phenyl]-acetamide]
- IC50 [1]: 2310 nM
- IC50 [2]: 0.039 µM
- IC50 [4]: 0.008 µM
- IC50 [5]: 0.051 µM
- solubility at 24 h [6]: 2.9 µM (≈ 2 µg/mL)

Structure (SMILES): CNc1ncc(C#Cc2cccc(CC(=O)Nc3ccc(CN4CCN(C)CC4)c(C(F)(F)F)c3)c2)c(-c2cc3c(n2C)CCNC3=O)n1 [Cmpd 174, 2-{3-[2-Methylamino-4-(1-methyl-4-oxo-4,5,6,7-tetrahydro-1H-pyrrolo[3,2-c]pyridin-2-yl)-pyrimidin-5-ylethynyl]-phenyl}-N-[4-(4-methyl-piperazin-1-ylmethyl)-3-trifluoromethyl-phenyl]-acetamide]
- IC50 [1]: 1150 nM
- IC50 [2]: 0.015 µM
- IC50 [4]: 0.005 µM
- IC50 [5]: 0.01 µM
- solubility at 24 h [6]: 3.5 µM (≈ 2.35 µg/mL)
